Where two headings read alike, the source gives them in different places.
Key:
[1] = target: T1, DYRK1A-ΔC (truncated DYRK1A, catalytic domain residues 1–502) (Rattus norvegicus, UniProt Q63470); experiment: DYRK1A-ΔC inhibition assay, HPLC/UFLC-based with fluorescent peptide substrate; format: biochemical; details: for remaining activity at 0.1 µM: read-out: DYRK1A-ΔC Remaining Activity at 0.1 µM; for remaining activity at 1 µM: read-out: DYRK1A-ΔC Remaining Activity at 1 µM; for remaining activity at 100 µM: read-out: DYRK1A-ΔC Remaining Activity at 100 µM; for Effect on DYRK1A-ΔC activity (in words): 0.1–100 µM
T1 construct: catalytic domain (residues 1–502) of rat DYRK1A; 6xHis; made in house; host or cells: Escherichia coli BL21
Method: W. Becker (Aachen University, Aachen, Germany) and subcloned into pET28a plasmid to produce recombinant 6xHis-tagged DYRK1A catalytic domain (DYRK1A-ΔC). The pET28-Dyrk1a-ΔC plasmid was transformed into Escherichia coli cells (BL21) for production and purification of the enzyme. Briefly, transformed bacteria cells were grown at 37 °C for 4 h until OD was between 0.6–0.7 and further grown at 37 °C for 5 h in the presence of 0.5 mM isopropyl β-D-1-thiogalactopyranoside (IPTG). Cells were harvested by centrifugation at 6000× g, 4 °C for 10 min and the pellet was washed with PBS. The pellet was re-suspended in PBS supplemented with protease inhibitors, 1 mg/mL lysozyme and 0.1% Triton X-100. After 30 min incubation at 4 °C, the lysate was subjected to sonication on ice (6 min with pulse on 30 s/ off 30 s) and pelleted at 10,000× g, 4 °C for 30 min. The supernatant was incubated with His-select nickel resin (Sigma, Saint-Quentin Fallavier, France) for 2 h at 4 °C under agitation, and the resin was transferred into a column and washed with Tris-HCl 20 mM, pH 8, with 5 mM imidazole. Proteins were eluted in Tris-HCl 20 mM, pH 8, 300 mM imidazole, and dialyzed overnight against Tris-HCl 50 mM, pH 8, dithiothreitol (DTT) 10 mM, MgCl2 5 mM. Purified proteins were quantified with Bradford’s reagent (BioRad). Purity was assessed by sodium dodecyl sulfate-polyacrylamide gel electrophoresis (SDS-PAGE). Proteins were kept at −80 °C until use.
The fluorescent peptide substrate was derived from the sequence of the human transcription factor FKHR that is a physiological substrate of DYRK1A [46]. […] The enzymatic reaction was started by addition of the substrate and the mixture was incubated at 37 °C for 30 min. […] The peptides were monitored by fluorimetry (excitation at 485 nm, emission at 530 nm) and quantified by integration of the peak absorbance area. A calibration curve established with different known concentrations of peptides was used for quantification. For inhibition studies with green tea catechins, the compounds, dissolved in water, were added at four different concentrations (up to 100 µM) to the well prior to addition of ATP (1 mM final concentration). Determination of the mode of inhibition (competitive/non-competitive) of the compounds was obtained by carrying assays with different concentrations of ATP (200, 400 and 800 µM).

[2] = target: T2, DYRK1A native human protein (Homo sapiens, UniProt Q13627); experiment: DYRK1A inhibition assay, HPLC-based (native protein PV3785); format: biochemical
T2 construct: purchased Thermo Fisher Scientific PV3785

[3] = EGCG levels in plasma and brain after oral gavage of FontUp; format: in vivo, mice; details: for concentration at 4 h / Kp at 4 h: male, mouse, two days; for Kp at 4 h: brain/plasma, read-out: Kp (brain concentration/plasma concentration)
Method: FontUp® was prepared daily as described above and strongly mixed at room temperature. Male mice received an oral gavage of three different doses (25, 50 and 75 mg/Kg), in the morning and in the evening for two or eight days. The last dose was administered 4 h before sacrifice.
Blood samples were obtained by retro-orbital sinus sampling with heparinized capillaries, collected into tubes containing a 1/10 volume of 3.8% sodium citrate, and immediately placed on ice. Plasma was isolated by centrifugation at 2500× g for 15 min at 4 °C. 80 µL of plasma samples were mixed with 20 µL 0.2 M NaH2PO4 solution containing 20% ascorbic acid and 0.1% EDTA, pH 3.6 for polyphenol assays. Plasma samples were store at −80 °C until use. Brains and hearts were harvested, snap-frozen in liquid nitrogen, and stored at −80 °C until use. Plasma total hcy, defined as the total concentration of hcy after quantitative reductive cleavage of all disulfide bonds, and total GSH were assayed using a fluorometric HPLC method previously described. ALT concentrations were determined using the Alanine Aminotransferase Activity Assay Kit (Sigma-Aldrich, Saint-Quentin Fallavier, France), based on the pyruvate generated. Plasma galectin-3 (Abcam ELISA kit, Paris, France), and fibronectin (Abcam ELISA kit) were assessed using sandwich ELISA. After removal of unbound conjugates, bound enzyme activity was assessed by use of a chromogenic substrate for measurement at 450 nm by a microplate reader (Flex Station 3, Molecular Devices, Ltd., Wokhingham, UK).
Brains were homogenized with 1.5 mm diameter beads for 2 min at 25 frequencies/second using a tissue lyser II (Qiagen, Hilden, Germany). The homogenates were centrifuged at 13,000 rpm for 10 min at 4 °C. The supernatants were transferred in a clear tube and mixed with the preservative solution as mentioned at one-tenth of its volume.
The catechin contents was analyzed as previously reported. Two hundred microliters of plasma or brain samples homogenates were thawed at room temperature and 50 µL of 0.4 M sodium phosphate buffer (pH 7.4) were added. The sample was mixed with 10 µL of beta-glucuronidase (250 units) and 10 µL of sulfatase (10 units) and then incubated at 37 °C for 45 min. Then the plasma or brain samples were partitioned with ethyl acetate in the ratio of 1:1 (v/v). The liquid-liquid extraction was carried out three times for 1 min by shaking on vortex and the organic phases (upper phases) were pooled. The combined ethyl acetate phases were evaporated under vacuum to dryness. The dry residue was re-dissolved in 50% methanol in water and was kept at −80 °C before HPLC analysis. HPLC was performed with a LC Prominence (Shimadzu, Kyoto, Japan) coupled with a Coulochem III electrode array detector (ESA Inc., Bedford, MA, USA) using a reverse- Interchrom C18 column (3 µm, 150 × 2.1 mm) eluted with the eluent described below at a flow rate of 0.35 mL/min at 45 °C. HPLC analysis was performed using a linear gradient system with mobile phase A (20 mM NaH2PO4) and mobile phase B (acetonitrile). Linear gradient elution was performed as follows: 100% mobile phase A for 10 min; 55% mobile phase A for 30 min and return to 100% mobile phase A for 15 min. The eluent was monitored using the Coulochem-III electrochemical detector (5011 analytical cell) with potential settings at 600 mV (E1) and 700 mV (E2). Quantification was carried out using the external standard method. Catechin quantification was performed after data acquisition using an LC Solution (Shimadzu).

DYRK1A = details: cited from earlier work
[4] = 0.1 µM compound, 1 mM ATP, 60 µM peptide, normalized to no inhibitor
[5] = 1 µM compound, 1 mM ATP, 60 µM peptide, normalized to no inhibitor
[6] = 10 µM compound, 1 mM ATP, 60 µM peptide, normalized to no inhibitor, read-out: DYRK1A-ΔC Remaining Activity at 10 µM
[7] = 100 µM compound, 1 mM ATP, 60 µM peptide, normalized to no inhibitor

Oc1cc(O)c2c(c1)O[C@H](c1ccc(O)c(O)c1)[C@H](O)C2 [EC, epicatechin]
remaining activity at 0.1 µM [1, 4]: 89.2 ± 9.5% | remaining activity at 1 µM [1, 5]: 84.1 ± 9.1% | remaining activity at 10 µM [1, 6]: 95.6 ± 8.1% | remaining activity at 100 µM [1, 7]: 88.7 ± 8.2% | Effect on DYRK1A-ΔC activity (in words) ([1]; 1 mM ATP): No effect

O=C(O[C@@H]1Cc2c(O)cc(O)cc2O[C@@H]1c1ccc(O)c(O)c1)c1cc(O)c(O)c(O)c1 [ECG, epicatechin gallate]
remaining activity at 0.1 µM [1, 4]: 78.1 ± 3.6% | remaining activity at 1 µM [1, 5]: 27.1 ± 7.3% | remaining activity at 10 µM ([1]; 10 µM compound, 200 µM ATP, up to 60 min at 37 °C, read-out: DYRK1A-ΔC Remaining Activity With 200 µM ATP): 8 ± 0.8% | remaining activity at 10 µM ([1]; 10 µM compound, 400 µM ATP, up to 60 min at 37 °C, read-out: DYRK1A-ΔC Remaining Activity with 400 µM ATP): 6.5 ± 0.9% | remaining activity at 10 µM ([1]; 10 µM compound, 800 µM ATP, up to 60 min at 37 °C, read-out: DYRK1A-ΔC Remaining Activity with 800 µM ATP): 4 ± 0.5% | remaining activity at 10 µM [1, 6]: 11.8 ± 4.2% | remaining activity at 100 µM [1, 7]: 7.6 ± 2.3% | remaining activity at 0.1 µM ([2]; 0.1 µM compound, 1 mM ATP, 60 µM peptide, native DYRK1A): 69.9 ± 3.9% | remaining activity at 1 µM ([2]; 1 µM compound, 1 mM ATP, 60 µM peptide, native DYRK1A): 12.5 ± 2.4% | remaining activity at 10 µM ([2]; 10 µM compound, 200 µM ATP, up to 60 min at 37 °C, read-out: DYRK1A Remaining Activity with 200 µM ATP): 9.4 ± 1.4% | remaining activity at 10 µM ([2]; 10 µM compound, 400 µM ATP, up to 60 min at 37 °C, read-out: DYRK1A Remaining Activity with 400 µM ATP): 7 ± 1.1% | remaining activity at 10 µM ([2]; 10 µM compound, 800 µM ATP, up to 60 min at 37 °C, read-out: DYRK1A Remaining Activity with 800 µM ATP): 5.4 ± 0.9% | remaining activity at 10 µM ([2]; 10 µM compound, 1 mM ATP, 60 µM peptide, native DYRK1A, read-out: DYRK1A Remaining Activity at 10 µM): 4.6 ± 0.9% | remaining activity at 100 µM ([2]; 100 µM compound, 1 mM ATP, 60 µM peptide, native DYRK1A): 2.3 ± 0.5% | Mode of inhibition of DYRK1A against ATP ([2]; DYRK1A-ΔC and DYRK1A, 10 µM compound, ATP 200–800 µM): noncompetitive inhibitor

Oc1cc(O)c2c(c1)O[C@H](c1cc(O)c(O)c(O)c1)[C@H](O)C2 [EGC, epigallocatechin]
remaining activity at 0.1 µM [1, 4]: 99.5 ± 3.2% | remaining activity at 1 µM [1, 5]: 93.6 ± 2.6% | remaining activity at 10 µM [1, 6]: 80.6 ± 11.4% | remaining activity at 100 µM [1, 7]: 81.4 ± 12.8% | Effect on DYRK1A-ΔC activity (in words) ([1]; 1 mM ATP): No effect

O=C(O[C@@H]1Cc2c(O)cc(O)cc2O[C@@H]1c1cc(O)c(O)c(O)c1)c1cc(O)c(O)c(O)c1 [EGCG, epigallocatechin-3-gallate]
remaining activity at 0.1 µM [1]: 71.3 ± 4.6% | remaining activity at 1 µM [1]: 16.3 ± 2.3% | remaining activity at 10 µM ([1]; read-out: DYRK1A-ΔC Remaining Activity at 10 µM): 6.4 ± 1.1% | remaining activity at 100 µM [1]: 3.5 ± 0.8% | Crossing of the blood-brain barrier (in words) ([3]; WT and TgBACDyrk1A mice, FontUp D2, two days, from Kp): had crossed the BBB | concentration at 4 h ([3]; TgBACDyrk1A, brain, 50 mg/Kg, TgDyrk1A mice, FontUp D2 oral gavage, n = 5, p < 0.07): 50 nM | Kp at 4 h ([3]; TgBACDyrk1A, 50 mg/Kg, TgDyrk1A mice, FontUp D2 oral gavage): 3.6 ± 0.82 | concentration at 4 h ([3]; TgBACDyrk1A, plasma, 50 mg/Kg, TgDyrk1A mice, FontUp D2 oral gavage, n = 5): 36 ± 11 nM | concentration at 4 h ([3]; brain, 50 mg/Kg, WT mice, FontUp D2 oral gavage, n = 5): 25 ± 7 nM | Kp at 4 h ([3]; 50 mg/Kg, WT mice, FontUp D2 oral gavage): 1.2 ± 0.33 | concentration at 4 h ([3]; plasma, 50 mg/Kg, WT mice, FontUp D2 oral gavage, n = 5): 65 ± 23 nM | concentration at 4 h ([3]; plasma, WT mice, FontUp high dose D3 (75 mg/Kg) oral gavage, last dose 4 h before sacrifice): 104 ± 11.2 nM | concentration at 4 h ([3]; plasma, WT mice, FontUp intermediate dose D2 (50 mg/Kg) oral gavage, last dose 4 h before sacrifice): 63 ± 10.8 nM | concentration at 4 h ([3]; plasma, WT mice, FontUp low dose D1 (25 mg/Kg) oral gavage, last dose 4 h before sacrifice): 28 ± 0.0003 nM | Mode of inhibition of DYRK1A (DYRK1A; against both substrates): non-competitive inhibitor | IC50 (DYRK1A; read-out: IC50 to inhibit DYRK1A activity): 330 nM

— PMC7073110, “Molecular Rescue of Dyrk1A Overexpression Alterations in Mice with Fontup® Dietary Supplement: Role of Green Tea Catechins” (International Journal of Molecular Sciences, 2020)
